Data on 36 compounds can be found in US20240327393A1 (SIRONAX LTD., priority 2021, published 2024).

Each structure is given as a SMILES string.

One assay deals with HT-1080 (ATCC, CCL-121) cells. As to the kind of experiment: HT-1080 cell viability assay with ferroptosis inducer RSL3 (Cell Titer-Glo). The class given is cell-based. The note with it: Homo sapiens; HT-1080 cells treated with RSL3; 3-fold, 10-point dilution, 1.1 μM highest concentration; Table 2; read-out: EC50 (nM), ferroptosis inhibitory activity. The gist of the method:
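EC50 was derived by sigmoidal dose-response regression of CellTiter-Glo luminescence viability, expressed relative to untreated wells. Compounds were tested in a ten-point, threefold dilution series (highest 1.1 μM) in the presence of the ferroptosis inducer RSL3. HT-1080 cells had been seeded at 6000 per well and grown overnight first.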
(In general: Cellular ATP, detected with luciferase, serves as a proxy for viable cell number.)
Take `COc1cc(N2CCC(C)CC2)cc(F)c1Nc1ccc2c(c1)n(C)c(=O)n2C` [Compound 272, 5-((2-fluoro-6-methoxy-4-(4-methylpiperidin-1-yl)phenyl)amino)-1,3-dimethyl-1,3-dihydro-2H-benzo[d]imidazol-2-one]: the EC50 is 0.1 to 100 nM.
Still for that read-out and setting: under `COC1(C(F)(F)F)CCN(c2ccc(Nc3ccc4c(c3)OCC(=O)N4C)cc2)CC1` [Compound 9, 7-((4-(4-methoxy-4-(trifluoromethyl)piperidin-1-yl)phenyl)amino)-4-methyl-2H-benzo[b][1,4]oxazin-3(4H)-one] stands 0.1 to 100 nM.
As for `CC1CN(c2ccc(Nc3ccc4c(c3)OCC(=O)N4CCO)cc2)CC(C)O1` (stereo not drawn) [Compound 84, 7-((4-(2,6-dimethylmorpholino)phenyl)amino)-4-(2-hydroxyethyl)-2H-benzo[b][1,4]oxazin-3(4H)-one], the EC50 fell in the range of 0.1 to 100 nM.
As for `Cc1cc(Nc2ccc3c(c2)OCC(=O)N3C)ccc1N1CCC(C(F)(F)F)CC1` [Compound 86, 4-methyl-7-((3-methyl-4-(4-(trifluoromethyl)piperidin-1-yl)phenyl)amino)-2H-benzo[b][1,4]oxazin-3(4H)-one], the concentration giving a half-maximal response (EC50) was 0.1 to 100 nM.
Turning to `CN1C(=O)COc2cc(Nc3cnc(N4CCC(C(F)(F)F)CC4)c(F)c3)ccc21` [Compound 27, 7-((5-fluoro-6-(4-(trifluoromethyl)piperidin-1-yl)pyridin-3-yl)amino)-4-methyl-2H-benzo[b][1,4]oxazin-3(4H)-one], the EC50 lay within 0.1 to 100 nM.
Still for that read-out and setting: the value for `CN1C(=O)COc2cc(Nc3ccc(N4CCC(C(F)(F)F)CC4)c(F)c3)ccc21` [Compound 77, 7-((3-fluoro-4-(4-(trifluoromethyl)piperidin-1-yl)phenyl)amino)-4-methyl-2H-benzo[b][1,4]oxazin-3(4H)-one] was 0.1 to 100 nM; that for `Cn1cnc2cc(Nc3ccc4c(c3)n(C)c(=O)n4C)ccc21` [Compound 331, 1,3-dimethyl-5-((1-methyl-1H-benzo[d]imidazol-5-yl)amino)-1,3-dihydro-2H-benzo[d]imidazol-2-one] was 100 to 1000 nM.
Consider `Cc1cc(N2CC(C)OC(C)C2)ccc1Nc1ccc2nn(C)cc2c1` (stereo not drawn) [Compound 445, N-(4-(2,6-dimethylmorpholino)-2-methylphenyl)-2-methyl-2H-indazol-5-amine], for which the EC50 is 0.1 to 100 nM.
Still for that read-out and setting: the value for `COCCn1c(=O)oc2ccc(Nc3ccc(N4CCC(C(F)(F)F)CC4)cc3)cc21` [Compound 393] was 0.1 to 100 nM; that for `FC1(F)CCN(c2ccc(Nc3ccc4c(c3)CNC4)cc2)CC1` [Compound 165, N-(4-(4,4-difluoropiperidin-1-yl)phenyl)isoindolin-5-amine] was 0.1 to 100 nM.
Same read-out and setting: the value for `COCCOc1ccc(Nc2ccc3c(c2)n(C)c(=O)n3C)cc1` [Compound 318, 5-((4-(2-methoxyethoxy)phenyl)amino)-1,3-dimethyl-1,3-dihydro-2H-benzo[d] imidazol-2-one] was 0.1 to 100 nM; that for `CN1Cc2cc(Nc3ccc(N(C)C)nc3)ccc2C1=O` [Compound 235, 5-((6-(dimethylamino)pyridin-3-yl)amino)-2-methylisoindolin-1-one] was 0.1 to 100 nM; that for `CC(C)N1Cc2cc(Nc3ccc(N4CCC(C(F)(F)F)CC4)cc3)ccc2C1=O` [Compound 210, 2-isopropyl-5-((4-(4-(trifluoromethyl)piperidin-1-yl)phenyl)amino) isoindolin-1-one] was 0.1 to 100 nM.
On the same count and under the same terms, the value for `O=C(C1CC1)N1Cc2ccc(Nc3ccc(N4CCC(C(F)(F)F)CC4)cc3)cc2C1` [Compound 190, cyclopropyl(5-((4-(4-(trifluoromethyl)piperidin-1-yl)phenyl)amino)isoindolin-2-yl)methanone] was 0.1 to 100 nM.
On to `COc1cc(Nc2ccc3c(c2)n(C)c(=O)n3C)cc(OC)c1OC` [Compound 312, 1,3-dimethyl-5-((3,4,5-trimethoxyphenyl)amino)-1,3-dihydro-2H-benzo[d]imidazol-2-one], for which the EC50 was 0.1 to 100 nM.
Same read-out and setting: the value for `CCn1c(=O)n(CC)c2cc(Nc3ccc(N4CCC(C)CC4)cc3)ccc21` [Compound 328, 1,3-diethyl-5-((4-(4-methylpiperidin-1-yl)phenyl)amino)-1,3-dihydro-2H-benzo[d]imidazol-2-one] was 0.1 to 100 nM.
Regarding `CN1Cc2cc(Nc3ccc(N4CCC(F)(F)CC4)cc3)ccc2C1=O` [Compound 172, 5-((4-(4,4-difluoropiperidin-1-yl)phenyl)amino)-2-methylisoindolin-1-one], the EC50 was in the range of 0.1 to 100 nM.
Same read-out and setting: under `CN1C(=O)COc2cc(Nc3ccc4cc(N5CCC(C(F)(F)F)CC5)ccc4c3)ccc21` [Compound 72, 4-methyl-7-((6-(4-(trifluoromethyl)piperidin-1-yl)naphthalen-2-yl)amino)-2H-benzo[b][1,4]oxazin-3(4H)-one] stands 0.1 to 100 nM; under `Cn1c(=O)n(C)c2cc(Nc3cnc(N4CCC(C(F)(F)F)CC4)c(F)c3)ccc21` [Compound 378, 5-((5-fluoro-6-(4-(trifluoromethyl)piperidin-1-yl)pyridin-3-yl)amino)-1,3-dimethyl-1,3-dihydro-2H-benzo[d]imidazol-2-one], 0.1 to 100 nM.
In the case of `Cc1cc(N2CC(C)OC(C)C2)ccc1Nc1ccc2c(c1)C(C)(C)C(=O)N2C` (stereo not drawn) [Compound 438, 5-((4-(2,6-dimethylmorpholino)-2-methylphenyl)amino)-1,3,3-trimethylindolin-2-one], the EC50 lay within 0.1 to 100 nM.
Still for that read-out and setting: the value for `CC1CN(c2ccc(Nc3ccc4oc(=O)n(C)c4c3)cc2)CC(C)O1` (stereo not drawn) [Compound 420, 5-((4-(2,6-dimethylmorpholino)phenyl)amino)-3-methylbenzo[d]oxazol-2(3H)-one] was 0.1 to 100 nM.
As for `CN1CCN(CC(=O)N2CCc3cc(Nc4ccc(N5CCC(C(F)(F)F)CC5)c(F)c4)ccc3C2)CC1` [Compound 108, 1-(6-((3-fluoro-4-(4-(trifluoromethyl)piperidin-1-yl)phenyl)amino)-3,4-dihydroisoquinolin-2(1H)-yl)-2-(4-methylpiperazin-1-yl)ethan-1-one], the EC50 is 0.1 to 100 nM.
Still for that read-out and setting: the value for `CN1C(=O)COc2cc(Nc3ccc(N4CC5CCC(C4)O5)c(F)c3)ccc21` [Compound 89, 7-((4-(8-oxa-3-azabicyclo[3.2.1]octan-3-yl)-3-fluorophenyl)amino)-4-methyl-2H-benzo[b][1,4]oxazin-3(4H)-one] was 0.1 to 100 nM; that for `Cn1ncc2cc(Nc3ccc(N4CCC(C(F)(F)F)CC4)cc3)ccc21` [Compound 364, 1-methyl-N-(4-(4-(trifluoromethyl)piperidin-1-yl)phenyl)-1H-indazol] was 0.1 to 100 nM.

The same assay, now with this note: Homo sapiens; HT-1080 cells treated with RSL3; 3-fold, 10-point dilution, 1.1 μM highest concentration; Table 3; read-out: EC50 (nM), ferroptosis inhibitory activity.
Take `Cc1cc(N2CCC(C(F)(F)F)CC2)ccc1Nc1ccc2c(c1)CN(CC(N)=O)C2` [Compound 579, 2-(5-((2-methyl-4-(4-(trifluoromethyl)piperidin-1-yl)phenyl)amino)isoindolin-2-yl)acetamide]: the half-maximal effective concentration (EC50) was in the range of 0.1 to 100 nM.
Regarding `Cc1cc(N2CCC(O)(C(F)(F)F)CC2)ccc1Nc1cc(C)c2c(c1)OCC(=O)N2` [Compound 511, 7-((4-(4-hydroxy-4-(trifluoromethyl)piperidin-1-yl)-2-methylphenyl)amino)-5-methyl-2H-benzo[b][1,4]oxazin-3(4H)-one], the EC50 lay within 0.1 to 100 nM.
In the case of `Cc1cc(N2CCC(C(F)(F)F)CC2)ccc1Nc1ccc2ncc(C(N)=O)n2c1` [Compound 630, 6-((2-methyl-4-(4-(trifluoromethyl)piperidin-1-yl)phenyl)amino) imidazo[1,2-a]pyridine-3-carboxamide], the EC50 lay in the range of 0.1 to 100 nM.
For the compound `Cc1cc(N2CCC(C(F)(F)F)CC2)ncc1Nc1ccc2c(c1)OCC(=O)N2` [Compound 453, 7-((4-methyl-6-(4-(trifluoromethyl)piperidin-1-yl)pyridin-3-yl)amino)-2H-benzo[b][1,4]oxazin-3(4H)-one], the EC50 is 0.1 to 100 nM.
Turning to `COc1cc(Nc2cnc3c(c2)OCC(=O)N3)c(C)cc1N1CCC(C(F)(F)F)CC1` [Compound 547, 7-((5-methoxy-2-methyl-4-(4-(trifluoromethyl)piperidin-1-yl)phenyl)amino)-2H-pyrido[3,2-b][1,4]oxazin-3(4H)-one], the EC50 was 0.1 to 100 nM.
The same measure, in the same setting: under `Cc1cc(N2CC(C(F)(F)F)C2)ccc1Nc1ccc2c(c1)OCC(=O)N2` [Compound 583, 7-((2-methyl-4-(3-(trifluoromethyl)azetidin-1-yl)phenyl)amino)-2H-benzo[b][1,4]oxazin-3(4H)-one] stands 0.1 to 100 nM.
The same measure, in the same setting: the value for `Cc1cc(N2CCC(F)(F)C2)ccc1Nc1ccc2c(c1)OCC(=O)N2` [Compound 597, 7-((4-(3,3-difluoropyrrolidin-1-yl)-2-methylphenyl)amino)-2H-benzo[b][1,4]oxazin-3(4H)-one] was 0.1 to 100 nM; that for `Cc1nc(N2CCOC(C)(C)C2)ccc1Nc1ccc2c(c1)OCC(=O)N2` [Compound 500, 7-((6-(2,2-dimethylmorpholino)-2-methylpyridin-3-yl)amino)-2H-benzo[b][1,4]oxazin-3(4H)-one] was 0.1 to 100 nM.
Take `Cc1cc(N2CC(F)(F)C2)ccc1Nc1ccc2c(c1)OCC(=O)N2` [Compound 576, 7-((4-(3,3-difluoroazetidin-1-yl)-2-methylphenyl)amino)-2H-benzo[b][1,4]oxazin-3(4H)-one]: the EC50 lay in the range of 0.1 to 100 nM.
The same measure, in the same setting: the value for `Cc1cc(N2CCC(C(F)(F)F)CC2)ccc1Nc1cc2c(cc1C)N(C)C(=O)CO2` [Compound 477, 4,6-dimethyl-7-((2-methyl-4-(4-(trifluoromethyl)piperidin-1-yl)phenyl)amino)-2H-benzo[b][1,4]oxazin-3(4H)-one] was 0.1 to 100 nM; that for `Cc1cc(N2CC(C(F)F)C2)ccc1Nc1ccc2c(c1)OCC(=O)N2` [Compound 655, 7-[4-[3-(difluoromethyl)azetidin-1-yl]-2-methyl-anilino]-4H-1,4-benzoxazin-3-one] was 0.1 to 100 nM; that for `CCNc1ccc(Nc2ccc3c(c2)OCC(=O)N3)c(C)c1` [Compound 635, 7-((4-(ethylamino)-2-methylphenyl)amino)-2H-benzo[b][1,4]oxazin-3(4H)-one] was 0.1 to 100 nM.

A word on the EC50: it is the concentration that produces a half-maximal response.
